Assay [1] concerns the target Somatostatin receptor type 2 (Mus musculus, UniProt P30875).
The target in assay [2] is Somatostatin receptor type 3 (Mus musculus, UniProt P30935).

Bridge positions count the residues as written; N and C are the ends. Square brackets hold non-standard residues; d marks the D form. Peptide text beside a SMILES is read from it. * marks the point of attachment. X1 = CC(O)[C@H](CO)N*

In general, Ki refers to a dissociation constant, usually derived from enzyme kinetics or from competition with a known ligand.

Somatostatin receptor type 3, sequence (P30935 whole entry): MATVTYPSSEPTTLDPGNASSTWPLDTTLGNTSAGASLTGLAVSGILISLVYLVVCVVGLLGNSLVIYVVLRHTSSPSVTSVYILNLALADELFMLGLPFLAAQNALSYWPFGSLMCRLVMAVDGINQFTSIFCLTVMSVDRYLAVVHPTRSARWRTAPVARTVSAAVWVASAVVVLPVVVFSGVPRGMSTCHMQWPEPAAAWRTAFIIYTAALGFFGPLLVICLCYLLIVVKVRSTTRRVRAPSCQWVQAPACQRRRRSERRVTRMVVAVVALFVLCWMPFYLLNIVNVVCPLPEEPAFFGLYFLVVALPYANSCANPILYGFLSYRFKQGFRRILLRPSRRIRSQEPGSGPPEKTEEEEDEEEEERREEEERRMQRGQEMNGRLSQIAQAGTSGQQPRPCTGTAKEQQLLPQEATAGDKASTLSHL
Somatostatin receptor type 2, sequence (P30875 whole entry): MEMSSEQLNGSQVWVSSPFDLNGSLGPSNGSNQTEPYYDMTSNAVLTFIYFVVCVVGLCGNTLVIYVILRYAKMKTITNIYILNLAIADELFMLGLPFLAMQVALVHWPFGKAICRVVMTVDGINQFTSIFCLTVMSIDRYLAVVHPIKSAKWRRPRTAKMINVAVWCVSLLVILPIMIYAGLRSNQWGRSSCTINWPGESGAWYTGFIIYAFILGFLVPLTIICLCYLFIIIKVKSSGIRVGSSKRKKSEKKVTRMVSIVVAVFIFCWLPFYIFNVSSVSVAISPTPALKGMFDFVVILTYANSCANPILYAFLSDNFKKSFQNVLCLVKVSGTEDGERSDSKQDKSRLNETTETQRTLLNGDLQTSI

On to `CC(C)[C@@H]1NC(=O)[C@H](CCCCN)NC(=O)[C@@H](Cc2c[nH]c3ccccc23)NC(=O)[C@H](Cc2ccc(O)cc2)NC(=O)[C@H](C)N(C)C(=O)[C@H](Cc2ccccc2)NC1=O` [CAS_3086456], for which the Ki in assay [1] came out at 0.07 nM; in assay [2], 268 nM.

As for `CC(O)[C@H](CO)NC(=O)[C@@H]1CSSC[C@H](NC(=O)[C@H](N)Cc2ccccc2)C(=O)N[C@@H](Cc2ccccc2)C(=O)N[C@H](Cc2c[nH]c3ccccc23)C(=O)N[C@@H](CCCCN)C(=O)N[C@@H]([C@@H](C)O)C(=O)N1` (some centres undefined) (H-[dF]CF[dW]KTC-X1; disulfide 2-7), the results for the Ki in assay [1] and in assay [2] were 0.5 nM and 150 nM, respectively.

The values above are taken from BindingDB's records for PubMed 1328199 (University of Chicago, 1992).
